Here are results for 3 compounds from US20160052936A1, “SPIROINDOLINE DERIVATIVES FOR USE AS GONADOTROPIN-RELEASING HORMONE RECEPTOR ANTAGONISTS” (BAYER PHARMA AKTIENGESELLSCHAFT, priority 2013, published 2016).

For assay [1], the target named is T1, human GnRH receptor (Homo sapiens, UniProt P30968).
T1 construct: host or cells: CHO cells stably expressing human GnRH receptor (line established by Prof. Thomas Gudermann)
T1 sequence (P30968 1-328): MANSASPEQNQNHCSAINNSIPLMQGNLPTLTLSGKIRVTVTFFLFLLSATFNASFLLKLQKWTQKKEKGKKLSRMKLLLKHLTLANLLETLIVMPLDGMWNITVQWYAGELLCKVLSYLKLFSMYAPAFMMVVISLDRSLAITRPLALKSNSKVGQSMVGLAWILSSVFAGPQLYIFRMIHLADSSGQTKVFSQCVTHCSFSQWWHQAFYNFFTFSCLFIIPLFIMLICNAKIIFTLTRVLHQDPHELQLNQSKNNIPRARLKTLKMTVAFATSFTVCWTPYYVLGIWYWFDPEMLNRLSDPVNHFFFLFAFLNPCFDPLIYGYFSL
Nature of the assay: IP-One HTRF assay with buserelin stimulation. The assay is classed as cell-based. The note with it: CHO cells stably expressing human GnRH receptor; buserelin at EC80; read-out: Potency in IP-One HTRF assay with buserelin (at EC80) stimulation, given as IC50. In outline:
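CHO cells stably expressing human GnRH receptor, preincubated 1 h with IP1-d2 at 37 °C, treated with compound and EC80 buserelin (LiCl present) for 1 h at 37 °C; IP1 measured by HTRF (665/620 nm ratio) after lysis 1 h at 22 °C. Ten concentrations, 20 μM–1 nM, duplicate; IC50 by 4-parameter fit.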
A general note: In TR-FRET formats the signal depends on donor and acceptor labels being close together.

The test system of assay [2] is LH level in ovariectomized rats. The experiment in a line: LH suppression in the ovariectomized rat. The assay is classed as in vivo. The note with it: for LH suppression: 8 hours after administration. An excerpt: 2.5. LH Suppression in the Ovariectomized Rat
The in vivo potency of GnRH antagonists can be quantified by a LH suppression test in ovariectomized rats. GnRH triggers the LH release from the pituitary mediated by GnRH receptors. Ovarectomy of adult female rats results in elevated levels of circulating LH due to a lack of negative feedback by gonadal steroids. GnRH antagonists suppress the release of LH and accordingly suppression of LH levels can be used to quantify the in vivo potency of GnRH antagonists.
Female adult rats were ovariectomized surgically and they were allowed to recover for at least one week. The animals received 0.5 mg/kg, 3 mg/kg or 10 mg/kg of Example 3.1 by single per oral administration. For comparison reasons a vehicle control and a positive control, 0.1 mg/kg cetrorelix (i.p.), were given once. At 0 min, 15 min, 30 min, 1 hour, 2 hours, 4 hours, 8 hours and 24 hours after compound administration blood was taken from the retro orbital plexus (n=6 per blood withdrawal) for the measurement of serum LH and serum compound levels.
As nonbinding explanatory example of compounds according to the invention FIG. 1 represents the LH level following administration of the compound according to Example 3.1, to ovariectomized adult rats. [Filled circle: Vehicle; Circle, dotted black line: Cetrorelix (0.1 mg/kg); Triangle: Example 3.1 (0.5 mg/kg); Reverse triangle: Example 3.1 (3 mg/kg); Diamond: Example 3.1 (10 mg/kg)]. Values are given as mean+standard deviation (n=6).

The structures appear in SMILES notation.

As usually defined, the IC50 is the midpoint of a concentration-inhibition curve.

On to `O=C(NCc1ncc(C(F)(F)F)cc1F)c1ccc2c(c1)C1(CCS(=O)(=O)CC1)[C@H](C1CC1)N2S(=O)(=O)c1ccc(F)cc1` (single isomer, unassigned) [Example 1.1], for which the IC50 in assay [1] is 0.093 µM.
Same read-out and setting: for `N#Cc1cccc(S(=O)(=O)N2c3ccc(C(=O)NCc4ncc(C(F)(F)F)cc4Cl)cc3C3(CCS(=O)(=O)CC3)[C@@H]2C2CC2)c1` (single isomer, unassigned) [Example 10.1] the value was 0.014 µM.
For the compound `O=C(NCc1ncc(C(F)(F)F)cc1Cl)c1ccc2c(c1)C1(CCS(=O)(=O)CC1)[C@H](C1CC1)N2S(=O)(=O)c1ccc(F)cc1` [Example 3.1, (2S)—N-{[3-chloro-5-(trifluoromethyl)pyridin-2-yl]methyl}-2-cyclopropyl-1-[(4-fluorophenyl)sulfonyl]-1,2,2′,3′,5′,6′-hexahydrospiro[indole-3,4′-thiopyran]-5-carboxamide 1′,1′-dioxide], the IC50 in assay [1] was determined as 0.021 µM. The values for the LH suppression in assay [2] (0.5 mg/kg single per oral administration), in assay [2] (3 mg/kg single per oral administration) and in assay [2] (10 mg/kg single per oral administration) were 19%, 48% and 90%, respectively. For the same compound, the “in vivo GnRH antagonist activity (conclusion)” value in assay [2] (per oral administration) is given as “orally active GnRH antagonist in vivo”.
